Source: patent US4028185A, “Method for producing L(+)-tartaric acid” (priority 1975, dated 1977)

Tested on: Acinetobacter tartarogenes KB-112
Assay: Effect of nonionic surfactant (0.1 %) on conversion of calcium cis-epoxysuccinate to L(+)-tartaric acid
Format: cell-based
Conditions: 30° C., 2 days; for Mole Yields (%) of L(+)-tartaric acid: cis-epoxysuccinate 40 % as free acid, particle size 60 micron, not added: 34; for Rate of Residues (%) of cis-epoxysuccinic acid: residue of 12 g as free acid = 100 %, not added: 64
Protocol: Acinetobacter tartarogenes KB-112 are used to inoculate 30 ml of culture medium, contained in the Erlenmeyer flask of 200 ml-capacity, which culture medium having been set up into such constitution that, to the basic culture medium which is composed of casamino acid (0.05 %), ammonium nitrate (0.1 %), dipotassium hydrogen phosphate (0.2 %), magnesium sulfate (0.05 %), ferrous sulfate (0.001 %), pH 7.0, various sorts of nonionic surfactants are added so that the respective kinds of surface active agents may come to the concentration of 0.1 %. And simultaneously, the crystals of calcium cis-epoxysuccinate (average particle size: 60 micron) is added, in such way that it may come to the final concentration of 40 % counted as the free acid; and the above mixture is subjected to rotatory shake culture at 30° C., and for 2 days, and thence being allowed to exert reaction effect. After the termination of reaction, and the crystals are collected by filtration and, after addition of sulfuric acid, subjected to centrifugal separator to eliminate the solid substances. Subsequently, the quantitative determinations are made, with respect to L(+)-tartaric acid, by depending upon the optical rotation at 436 mμ; and with respect to the remaining cis-epoxysuccinic acid, by using Payne & Williams Method (G. B. Payne and P. H. Williams: Journal of Organic Chemistry, 24, 54, (1959)).

Molecule | Mole Yields (%) of L(+)-tartaric acid [%] | Rate of Residues (%) of cis-epoxysuccinic acid [%]
Propyleneglycol monostearate [NIKKOL PMS-SE] | 46 | 50
Sorbitan monooleate [NIKKOL SR-10] | 45 | 52
CCCCCCCCCCCCCCCCCC(=O)OCC(O)CO (stereo not drawn) [NIKKOL MGS-C, Glyceryl monostearate] | 48 | 47
